The record followed here is paper PMC10446182, “Reduced steroid activation of elephant shark GR and MR after inserting four amino acids from the DNA-binding domain of lamprey corticoid receptor-1” (PLOS ONE, 2023).

Experiment in all cases: luciferase reporter transactivation in HEK293 cells
Common to all, as to format: cell-based

In experiment [1] the target is T1, FLAG-tagged wild-type elephant shark GR (Callorhinchus milii, UniProt A0A4W3H7L4).
T1 construct: full-length, N-terminal FLAG tag, transiently expressed in HEK293 cells
T1 sequence (A0A4W3H7L4 1-704): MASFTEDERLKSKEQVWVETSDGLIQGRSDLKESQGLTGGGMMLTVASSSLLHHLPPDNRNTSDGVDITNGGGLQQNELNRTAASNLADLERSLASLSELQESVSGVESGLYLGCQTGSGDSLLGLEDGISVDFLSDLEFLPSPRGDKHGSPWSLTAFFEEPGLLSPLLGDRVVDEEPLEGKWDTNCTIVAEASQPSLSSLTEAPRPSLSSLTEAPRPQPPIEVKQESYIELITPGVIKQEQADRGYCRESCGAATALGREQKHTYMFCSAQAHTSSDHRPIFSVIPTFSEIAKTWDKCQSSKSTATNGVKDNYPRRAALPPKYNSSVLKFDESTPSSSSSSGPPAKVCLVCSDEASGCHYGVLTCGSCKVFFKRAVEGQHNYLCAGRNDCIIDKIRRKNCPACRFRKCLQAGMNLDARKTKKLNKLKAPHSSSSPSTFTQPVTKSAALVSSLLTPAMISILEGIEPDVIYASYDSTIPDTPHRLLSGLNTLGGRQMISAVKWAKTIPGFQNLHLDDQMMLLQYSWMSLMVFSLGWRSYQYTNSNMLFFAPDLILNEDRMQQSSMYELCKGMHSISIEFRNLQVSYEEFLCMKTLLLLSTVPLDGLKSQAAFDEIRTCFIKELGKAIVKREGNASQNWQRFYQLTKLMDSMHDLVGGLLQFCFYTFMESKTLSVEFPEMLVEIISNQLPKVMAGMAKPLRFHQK
The source says: (§1) luciferase reporter transactivation in HEK293 cells on FLAG-tagged wild-type elephant shark GR

Experiment [2] concerns the target T2, FLAG-tagged wild-type elephant shark GR (Callorhinchus milii, UniProt A0A4W3H7L4).
T2 construct: full-length, N-terminal FLAG tag, transiently expressed in HEK293 cells
As to conditions: MMTV-luc promoter; agonist; 37 C.
Description: as §1

In experiment [3] the target is T3, FLAG-tagged wild-type elephant shark MR (Callorhinchus milii, UniProt A0A4W3I5J5).
T3 construct: gene nr3c2; full-length, N-terminal FLAG tag, transiently expressed in HEK293 cells
As to conditions: MMTV-luc promoter; agonist; 37 C. The source says:
luciferase reporter transactivation in HEK293 cells on FLAG-tagged wild-type elephant shark MR

Read-outs that look alike come from different tables or passages of the source.

T3 sequence (A0A4W3I5J5 entry or part of it): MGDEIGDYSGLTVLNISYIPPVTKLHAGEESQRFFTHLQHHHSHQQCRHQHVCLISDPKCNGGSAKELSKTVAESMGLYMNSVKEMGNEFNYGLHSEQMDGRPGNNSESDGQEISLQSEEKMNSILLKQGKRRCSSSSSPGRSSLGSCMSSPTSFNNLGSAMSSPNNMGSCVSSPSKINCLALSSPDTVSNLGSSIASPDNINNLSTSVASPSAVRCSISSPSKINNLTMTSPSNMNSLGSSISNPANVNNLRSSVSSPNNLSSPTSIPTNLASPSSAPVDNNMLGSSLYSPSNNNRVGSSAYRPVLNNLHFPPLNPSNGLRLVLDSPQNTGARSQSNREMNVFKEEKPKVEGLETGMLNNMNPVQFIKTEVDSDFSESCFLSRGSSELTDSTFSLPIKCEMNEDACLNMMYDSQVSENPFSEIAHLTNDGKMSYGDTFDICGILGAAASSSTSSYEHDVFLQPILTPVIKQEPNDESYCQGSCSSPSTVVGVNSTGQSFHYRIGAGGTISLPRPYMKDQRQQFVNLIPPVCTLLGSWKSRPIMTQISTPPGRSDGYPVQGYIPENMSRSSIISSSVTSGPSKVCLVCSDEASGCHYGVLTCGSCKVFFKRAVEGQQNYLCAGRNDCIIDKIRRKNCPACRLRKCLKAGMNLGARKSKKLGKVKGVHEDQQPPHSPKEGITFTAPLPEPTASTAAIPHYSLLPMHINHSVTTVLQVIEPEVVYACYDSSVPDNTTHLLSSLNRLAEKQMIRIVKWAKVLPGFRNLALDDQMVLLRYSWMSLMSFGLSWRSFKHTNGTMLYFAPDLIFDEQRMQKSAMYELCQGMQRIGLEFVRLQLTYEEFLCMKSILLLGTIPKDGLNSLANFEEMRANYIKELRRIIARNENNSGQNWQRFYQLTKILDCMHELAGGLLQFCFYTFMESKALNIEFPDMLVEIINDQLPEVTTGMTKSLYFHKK

`C[C@]12CCC(=O)C=C1CC[C@@H]1[C@@H]2[C@@H](O)C[C@]2(C=O)[C@@H](C(=O)CO)CC[C@@H]12` [Aldo, aldosterone]: the response in experiment [1] was half-maximal at 14.1 nM (EC50).

In experiment [1], `C[C@]12C[C@H](O)[C@H]3[C@@H](CCC4=CC(=O)CC[C@@]43C)[C@@H]1CC[C@@H]2C(=O)CO` [CORT, Corticosterone] came in with an EC50 of 6 nM.

On to `C[C@]12CCC(=O)C=C1CC[C@@H]1[C@@H]2[C@@H](O)C[C@@]2(C)[C@H]1CC[C@]2(O)C(=O)CO` [Cortisol], for which the EC50 in experiment [2] was 13.9 nM; in experiment [1] it was 25.2 nM; in experiment [3], 0.5 nM.

As for `C[C@]12CC[C@H]3[C@@H](CCC4=CC(=O)CC[C@@]43C)[C@@H]1CC[C@@H]2C(=O)CO` [DOC, 11-deoxycorticosterone], in experiment [1], the midpoint of the response, the EC50, lay at 13 nM.

With `C[C@]12CCC(=O)C=C1CC[C@@H]1[C@@H]2CC[C@@]2(C)[C@H]1CC[C@]2(O)C(=O)CO` [S, 11-deoxycortisol], the EC50 in experiment [3] turned out to be 0.13 nM.
